These results are taken from patent publication US6996429B2, “Apparatus and method for detecting flinch response to nociceptive agents” (Regents of the Univeristy of California, San Diego, priority 2001, dated 2006).

Experiment [1] concerns formalin induced flinching in the rat. Put plainly: Effects of systemic and spinal drugs on formalin evoked flinching behavior (automated formalin test). The format is in vivo. The method, then: To examine the effects of a drug on flinching behavior, rats received intraperitoneal or intrathecal injections of the drug. Intraperitoneal injections were delivered in volumes of 0.5 ml/kg.
Solutions were prepared fresh daily.
The percent inhibition is computed by dividing the response of each animal in a given group by the respective vehicle control group and multiplying by 100.
5. Test for intrathecal and intraperitoneal drugs on flinch behavior. […] Dose response curves of each agent were generated to relate drug effect to paw flinch and for comparison with previously reported data.

Another experiment deals with rat hind paw. Particulars: for Cumulative flinching behavior (Mean ± SD) Phase I / Cumulative flinching behavior (Mean ± SD) Phase II / Cumulative flinching behavior (Mean ± SD) Phase IIA / Cumulative flinching behavior (Mean ± SD) Phase IIB: N 12.
The mark [2] stands for this setting: Formalin, 0.5% vs. Formalin, 2.5%.
[3] abbreviates: No Injection vs. Formalin, 2.5%.

The structures appear in SMILES notation. “Also recorded” adds a separate entry of the source. Like-named read-outs stand apart in the source and are kept apart here.

As for `CN1CC[C@]23c4c5ccc(O)c4O[C@H]2[C@@H](O)C=C[C@H]3[C@H]1C5.O=S(=O)(O)O` [Morphine, morphine sulfate], the “effect on the flinching response” value in experiment [1] (intrathecal injection, sulfate) was “potent dose dependent reduction of all phases of the flinching response; also recorded: dose-dependent reduction in all phases of the response to formalin”; in experiment [1] (systemic (intraperitoneal) injection, sulfate), “potent dose dependent reduction of all phases of the flinching response; also recorded: dose-dependent reduction in all phases of the response to formalin”.
For `C[C@]12N[C@H](Cc3ccccc31)c1ccccc12` [MK801], the “ED50 Phase II (Mean and 95% confidence intervals)” value in experiment [1] (IT (intrathecal), Phase II (10–60 min), from % MPE dose effect curves) is reported as 9.5 (87-1.0) μg. In addition, the “ED50 Phase IIA (Mean and 95% confidence intervals)” value in experiment [1] (IT (intrathecal), Phase IIA (10–40 min), from % MPE dose effect curves) is 7.3 (43-1.2) μg. Moreover, the “effect on the flinching response” value in experiment [1] (intrathecal injection) and in experiment [1] (systemic (intraperitoneal) injection) was “potent dose dependent reduction in Phase II but not Phase I” in each case. Besides, the “flinching behavior at the lowest doses” value in experiment [1] (systemic delivery, lowest doses) was “apparent increase in flinching behavior at the lowest doses”.
Regarding `C=O` [Formalin], the “flinching behavior versus formalin concentration” value in the experiment on rat hind paw (0.5%/50 μL to 5.0%/50 μL, all phases, compared to saline, 1-way ANOVA p<0.002) is on record as “concentration-related increase in flinching behavior”. Also, the “peak flinch rate Phase I” value in the experiment on rat hind paw (100 male Sprague Dawly rats, Phase I) is approximately 50 flinches/min. The “peak flinch rate Phase II” value in the experiment with rat hind paw (100 male Sprague Dawly rats, Phase II) was approximately 37 flinches/min. Besides, the “mean cumulative flinches (±SEM) Phase I” value in the experiment on rat hind paw (100 male rats, Phase I (0–9 min)) was determined as 203±9. Besides, the “mean cumulative flinches (±SEM) Phase II” value with rat hind paw (100 male rats, Phase II) came to 1058±39. Moreover, the “mean cumulative flinches (±SEM) Phase IIA” value in the experiment on rat hind paw (100 male rats, Phase IIA (10–40 min)) is given as 792±27. Besides, the “mean cumulative flinches (±SEM) Phase IIB” value in the experiment on rat hind paw (100 male rats, Phase IIB (41–60 min)) is 266±16. Also, the “Post hoc group comparison Phase I” value is “S (S = Significant difference between groups, p < 0.05, Tukey/Kramer post hoc test.)” in the experiment on rat hind paw (Formalin, 0.5% vs. Formalin, 2.5%, Phase I); “S (S = Significant difference between groups, p < 0.05, Tukey/Kramer post hoc test.)” in the experiment on rat hind paw (Formalin, 0.5% vs. Formalin, 5.0%, Phase I); “S (S = Significant difference between groups, p < 0.05, Tukey/Kramer post hoc test.)” in the experiment with rat hind paw (No Injection vs. Formalin, 2.5%, Phase I); “S (S = Significant difference between groups, p < 0.05, Tukey/Kramer post hoc test.)” in the experiment with rat hind paw (No Injection vs. Formalin, 5.0%, Phase I); “S (S = Significant difference between groups, p < 0.05, Tukey/Kramer post hoc test.)” with rat hind paw (Saline vs. Formalin, 1.0%, Phase I); “S (S = Significant difference between groups, p < 0.05, Tukey/Kramer post hoc test.)” in the experiment with rat hind paw (Saline vs. Formalin, 2.5%, Phase I). In addition, the “Post hoc group comparison Phase I” value in the experiment on rat hind paw (Saline vs. Formalin, 5.0%, Phase I) is “S (S = Significant difference between groups, p < 0.05, Tukey/Kramer post hoc test.)”. Besides, the “Post hoc group comparison Phase II” value in the experiment with rat hind paw (Formalin, 0.5% vs. Formalin, 2.5%, Phase II) is on record as “S (S = Significant difference between groups, p < 0.05, Tukey/Kramer post hoc test.)”; with rat hind paw (Formalin, 0.5% vs. Formalin, 5.0%, Phase II) it was “S (S = Significant difference between groups, p < 0.05, Tukey/Kramer post hoc test.)”; with rat hind paw (Formalin, 1.0% vs. Formalin, 2.5%, Phase II), “S (S = Significant difference between groups, p < 0.05, Tukey/Kramer post hoc test.)”; in the experiment with rat hind paw (No Injection vs. Formalin, 1.0%, Phase II), “S (S = Significant difference between groups, p < 0.05, Tukey/Kramer post hoc test.)”; with rat hind paw (No Injection vs. Formalin, 2.5%, Phase II), “S (S = Significant difference between groups, p < 0.05, Tukey/Kramer post hoc test.)”; with rat hind paw (No Injection vs. Formalin, 5.0%, Phase II), “S (S = Significant difference between groups, p < 0.05, Tukey/Kramer post hoc test.)”. The “Post hoc group comparison Phase II” value with rat hind paw (Saline vs. Formalin, 1.0%, Phase II) is “S (S = Significant difference between groups, p < 0.05, Tukey/Kramer post hoc test.)”; with rat hind paw (Saline vs. Formalin, 2.5%, Phase II), “S (S = Significant difference between groups, p < 0.05, Tukey/Kramer post hoc test.)”; with rat hind paw (Saline vs. Formalin, 5.0%, Phase II), “S (S = Significant difference between groups, p < 0.05, Tukey/Kramer post hoc test.)”. In addition, the “Post hoc group comparison Phase IIA” value in the experiment on rat hind paw (setting [2]) is “S (S = Significant difference between groups, p < 0.05, Tukey/Kramer post hoc test.)”; in the experiment with rat hind paw (Formalin, 0.5% vs. Formalin, 5.0%), “S (S = Significant difference between groups, p < 0.05, Tukey/Kramer post hoc test.)”; with rat hind paw (No Injection vs. Formalin, 1.0%), “S (S = Significant difference between groups, p < 0.05, Tukey/Kramer post hoc test.)”; in the experiment with rat hind paw (setting [3]), “S (S = Significant difference between groups, p < 0.05, Tukey/Kramer post hoc test.)”; with rat hind paw (No Injection vs. Formalin, 5.0%) it was “S (S = Significant difference between groups, p < 0.05, Tukey/Kramer post hoc test.)”; with rat hind paw (Saline vs. Formalin, 2.5%), “S (S = Significant difference between groups, p < 0.05, Tukey/Kramer post hoc test.)”. Further, the “Post hoc group comparison Phase IIA” value in the experiment with rat hind paw (Saline vs. Formalin, 5.0%) is listed as “S (S = Significant difference between groups, p < 0.05, Tukey/Kramer post hoc test.)”. The “Post hoc group comparison Phase IIB” value in the experiment on rat hind paw (setting [2]) is recorded as “S (S = Significant difference between groups, p < 0.05, Tukey/Kramer post hoc test.)”; in the experiment with rat hind paw (setting [3]), “S (S = Significant difference between groups, p < 0.05, Tukey/Kramer post hoc test.)”; with rat hind paw (Saline vs. Formalin, 2.5%), “S (S = Significant difference between groups, p < 0.05, Tukey/Kramer post hoc test.)”. Moreover, the “Cumulative flinching behavior (Mean ± SD) Phase I” value with rat hind paw (Formalin, 0.5%, Phase I) came to 127 ± 66; in the experiment with rat hind paw (Formalin, 1.0%, Phase I) it was 171 ± 55; with rat hind paw (Formalin, 2.5%, Phase I), 214 ± 75; in the experiment on rat hind paw (Formalin, 5.0%, Phase I), 230 ± 84. Also, the “Cumulative flinching behavior (Mean ± SD) Phase II” value in the experiment with rat hind paw (Formalin, 0.5%, Phase II) is given as 400 ± 185; in the experiment on rat hind paw (Formalin, 1.0%, Phase II), 613 ± 265; in the experiment on rat hind paw (Formalin, 2.5%, Phase II), 898 ± 266; in the experiment on rat hind paw (Formalin, 5.0%, Phase II), 811 ± 194. Moreover, the “Cumulative flinching behavior (Mean ± SD) Phase IIA” value in the experiment on rat hind paw (Formalin, 0.5%) is reported as 301 ± 169; in the experiment with rat hind paw (Formalin, 1.0%), 495 ± 211; in the experiment with rat hind paw (Formalin, 2.5%), 662 ± 210; in the experiment with rat hind paw (Formalin, 5.0%), 659 ± 131. For the same molecule, the “Cumulative flinching behavior (Mean ± SD) Phase IIB” value with rat hind paw (Formalin, 0.5%) is 100 ± 79; in the experiment on rat hind paw (Formalin, 1.0%), 118 ± 100; in the experiment on rat hind paw (Formalin, 2.5%) it was 236 ± 148; with rat hind paw (Formalin, 5.0%), 152 ± 88. The “formalin concentration at which the maximum (plateau) of flinching was observed” value in the experiment on rat hind paw (range 0.5 to 5%) is given as 2.5%.
